Test results published in patent US8084649B2, “Herbicides” (Syngenta Crop Protection, inc., priority 2007, dated 2011).

Key:
Type in all cases: in vivo
Setaria faberi (SETFA) [1] = experiment: Post-emergence herbicidal activity, glasshouse pot test; conditions: Setaria faberi, evaluated after 14 or 15 days, read-out: Post-emergence activity, SETFA (100=total damage to plant; 0=no damage to plant); for pest or weed control at 125 g/ha: rate 125 g/ha; for pest or weed control at 500 g/ha: rate 500 g/ha
Summary of the method: (§1)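 Visual damage ratings on a 0–100 scale (100 = plant killed) were taken 14 or 15 days after treatment. Seedlings had been raised for 10 days in sterilised soil in a glasshouse before spraying with an aqueous solution of the formulated active ingredient.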

[2] = tested on: Alopecurus myosuroides (ALOMY); experiment: as above; conditions: Alopecurus myosuroides, evaluated after 14 or 15 days, read-out: Post-emergence activity, ALOMY (100=total damage to plant; 0=no damage to plant); for pest or weed control at 125 g/ha: rate 125 g/ha; for pest or weed control at 500 g/ha: rate 500 g/ha
Summary of the method: as §1

Avena fatua (AVEFA) [3] = experiment: as above; conditions: Avena fatua, evaluated after 14 or 15 days, read-out: Post-emergence activity, AVEFA (100=total damage to plant; 0=no damage to plant); for pest or weed control at 125 g/ha: rate 125 g/ha; for pest or weed control at 500 g/ha: rate 500 g/ha
Summary of the method: as §1

Lolium perenne (LOLPE) [4] = experiment: as above; conditions: Lolium perenne, evaluated after 14 or 15 days, read-out: Post-emergence activity, LOLPE (100=total damage to plant; 0=no damage to plant); for pest or weed control at 125 g/ha: rate 125 g/ha; for pest or weed control at 500 g/ha: rate 500 g/ha
Summary of the method: as §1

[5] = tested on: Echinochloa crus-galli (ECHCG); experiment: as above; conditions: Echinochloa crus-galli, evaluated after 14 or 15 days, read-out: Post-emergence activity, ECHCG (100=total damage to plant; 0=no damage to plant); for pest or weed control at 125 g/ha: rate 125 g/ha; for pest or weed control at 500 g/ha: rate 500 g/ha
Summary of the method: as §1

[6] = tested on: Digitaria sanguinalis (DIGSA); experiment: as above; conditions: Digitaria sanguinalis, evaluated after 14 or 15 days, read-out: Post-emergence activity, DIGSA (100=total damage to plant; 0=no damage to plant); for pest or weed control at 125 g/ha: rate 125 g/ha; for pest or weed control at 500 g/ha: rate 500 g/ha
Summary of the method: as §1

Setaria faberi (SETFA) [7] = experiment: Pre-emergence herbicidal activity, glasshouse pot test; conditions: Setaria faberi, 480 h, rate 500 g/ha, evaluated after 20 days, read-out: Pre-emergence activity, SETFA (100=total damage to plant; 0=no damage to plant)
Summary of the method: (§2)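 Pre-emergence application: sprayed one day after seeding into pots of sterilised standard soil. After 20 days' growth in a greenhouse, percent damage was scored visually, 0 meaning unharmed and 100 total damage.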

[8] = tested on: Alopecurus myosuroides (ALOMY); experiment: as above; conditions: Alopecurus myosuroides, 480 h, rate 500 g/ha, evaluated after 20 days, read-out: Pre-emergence activity, ALOMY (100=total damage to plant; 0=no damage to plant)
Summary of the method: as §2

Avena fatua (AVEFA) [9] = experiment: as above; conditions: Avena fatua, 480 h, rate 500 g/ha, evaluated after 20 days, read-out: Pre-emergence activity, AVEFA (100=total damage to plant; 0=no damage to plant)
Summary of the method: as §2

Lolium perenne (LOLPE) [10] = experiment: as above; conditions: Lolium perenne, 480 h, rate 500 g/ha, evaluated after 20 days, read-out: Pre-emergence activity, LOLPE (100=total damage to plant; 0=no damage to plant)
Summary of the method: as §2

[11] = tested on: Echinochloa crus-galli (ECHCG); experiment: as above; conditions: Echinochloa crus-galli, 480 h, rate 500 g/ha, evaluated after 20 days, read-out: Pre-emergence activity, ECHCG (100=total damage to plant; 0=no damage to plant)
Summary of the method: as §2

[12] = tested on: Digitaria sanguinalis (DIGSA); experiment: as above; conditions: Digitaria sanguinalis, 480 h, rate 500 g/ha, evaluated after 20 days, read-out: Pre-emergence activity, DIGSA (100=total damage to plant; 0=no damage to plant)
Summary of the method: as §2

Row | Structure (SMILES) | pest or weed control at 125 g/ha (Setaria faberi (SETFA) [1]) [%] | pest or weed control at 125 g/ha [2] [%] | pest or weed control at 125 g/ha (Avena fatua (AVEFA) [3]) [%] | pest or weed control at 125 g/ha (Lolium perenne (LOLPE) [4]) [%] | pest or weed control at 125 g/ha [5] [%] | pest or weed control at 125 g/ha [6] [%] | pest or weed control at 500 g/ha (Setaria faberi (SETFA) [7]) [%] | pest or weed control at 500 g/ha [8] [%] | pest or weed control at 500 g/ha (Avena fatua (AVEFA) [9]) [%] | pest or weed control at 500 g/ha (Lolium perenne (LOLPE) [10]) [%] | pest or weed control at 500 g/ha [11] [%] | pest or weed control at 500 g/ha [12] [%] | pest or weed control at 500 g/ha (Setaria faberi (SETFA) [1]) [%] | pest or weed control at 500 g/ha [2] [%] | pest or weed control at 500 g/ha (Avena fatua (AVEFA) [3]) [%] | pest or weed control at 500 g/ha (Lolium perenne (LOLPE) [4]) [%] | pest or weed control at 500 g/ha [5] [%] | pest or weed control at 500 g/ha [6] [%]
1 | CCc1cc(C)cc(CC)c1C1=C(OS(=O)(=O)Cc2ccccc2)CC2(CCOCC2)CC1=O [Compound P26] | 0 | 10 | 0 | 0 | 0 | 10 | 70 | 80 | 80 | 90 | 40 | 60 | – | – | – | – | – | –
2 | CCc1cc(C)cc(CC)c1C1=C(OS(=O)(=O)CC(F)(F)F)CC2(CCOCC2)CC1=O [Compound P27] | 50 | 70 | 50 | 70 | 70 | 70 | 100 | 100 | 100 | 100 | 100 | 100 | – | – | – | – | – | –
3 | CCCS(=O)(=O)OC1=C(c2c(CC)cc(C)cc2CC)C(=O)CC2(CCOCC2)C1 [Compound P29] | 30 | 30 | 0 | 10 | 30 | 50 | 60 | 60 | 60 | 60 | 10 | 80 | – | – | – | – | – | –
4 | CCc1cc(C)cc(CC)c1C1=C(OC)CC2(CCOCC2)CC1=O [Compound P32] | 0 | 20 | 0 | 0 | 0 | 0 | 10 | 100 | 100 | 100 | 20 | 50 | – | – | – | – | – | –
5 | CCOC1=C(c2c(CC)cc(C)cc2CC)C(=O)CC2(CCOCC2)C1 [Compound P33] | 0 | 20 | 0 | 0 | 0 | 30 | 10 | 90 | 30 | 50 | 10 | 70 | – | – | – | – | – | –
6 | CCCCCCCCCCCC(=O)OC1=C(c2c(CC)cc(C)cc2CC)C(=O)CC2(CCOCC2)C1 [Compound P44] | 90 | 80 | 90 | 90 | 90 | 100 | 100 | 100 | 100 | 100 | 100 | 100 | – | – | – | – | – | –
7 | CCCCCCCCCCCCCCCC(=O)OC1=C(c2c(CC)cc(C)cc2CC)C(=O)CC2(CCOCC2)C1 [Compound P45] | 10 | 30 | 60 | 0 | 10 | 20 | 100 | 80 | 100 | 100 | 100 | 100 | – | – | – | – | – | –
8 | CCc1cc(C)cc(CC)c1C1=C(OC(=O)CCCCCCC(=O)OC)CC2(CCOCC2)CC1=O [Compound P46] | 90 | 90 | 100 | 90 | 100 | 90 | 100 | 100 | 100 | 100 | 100 | 100 | – | – | – | – | – | –
9 | C=CCCCCCCCCC(=O)OC1=C(c2c(CC)cc(C)cc2CC)C(=O)CC2(CCOCC2)C1 [Compound P47] | 60 | 70 | 60 | 50 | 70 | 70 | 100 | 100 | 100 | 100 | 100 | 100 | – | – | – | – | – | –
10 | CCc1cc(CC)c(C2=C(OC(=O)C(C)(C)C)CC3(CCOCC3)CC2=O)c(CC)c1 [Compound P49] | – | – | – | – | – | – | 100 | 100 | 60 | 100 | 100 | 100 | 80 | 60 | 10 | 50 | 90 | 90
11 | COC1CCC2(CC1)CC(=O)C(c1cc(C)ccc1C)=C(OC(=O)CC(C)(C)C)C2 (stereo not drawn) [Compound P56] | – | – | – | – | – | – | 100 | 100 | 60 | 60 | 80 | 100 | 70 | 70 | 10 | 70 | 80 | 80
12 | CCc1cc(C)cc(CC)c1C1=C(OC(=O)C(C)(C)C)CC2(CCCSC2)CC1=O (stereo not drawn) [Compound P59] | 60 | 40 | 0 | 20 | 30 | 80 | 70 | 20 | 10 | 10 | 50 | 100 | – | – | – | – | – | –
13 | CCc1cc(C)cc(CC)c1C1=C(OC(=O)C(C)(C)C)CC(CC(C)SC(C)C)CC1=O (stereo not drawn) [Compound P60] | 60 | 70 | 50 | 70 | 70 | 60 | 90 | 80 | 0 | 100 | 90 | 100 | – | – | – | – | – | –
